Results: ChEMBL document CHEMBL1141870, “Discovery of potent chromen-4-one inhibitors of the DNA-dependent protein kinase (DNA-PK) using a small-molecule library approach” (J Med Chem, 2005)

Biological target: DNA-dependent protein kinase catalytic subunit (Homo sapiens, UniProt P78527)
Assay: Inhibition against DNA-dependent protein kinase receptor at 0.5uM

Sequence of DNA-dependent protein kinase catalytic subunit (P78527 whole entry): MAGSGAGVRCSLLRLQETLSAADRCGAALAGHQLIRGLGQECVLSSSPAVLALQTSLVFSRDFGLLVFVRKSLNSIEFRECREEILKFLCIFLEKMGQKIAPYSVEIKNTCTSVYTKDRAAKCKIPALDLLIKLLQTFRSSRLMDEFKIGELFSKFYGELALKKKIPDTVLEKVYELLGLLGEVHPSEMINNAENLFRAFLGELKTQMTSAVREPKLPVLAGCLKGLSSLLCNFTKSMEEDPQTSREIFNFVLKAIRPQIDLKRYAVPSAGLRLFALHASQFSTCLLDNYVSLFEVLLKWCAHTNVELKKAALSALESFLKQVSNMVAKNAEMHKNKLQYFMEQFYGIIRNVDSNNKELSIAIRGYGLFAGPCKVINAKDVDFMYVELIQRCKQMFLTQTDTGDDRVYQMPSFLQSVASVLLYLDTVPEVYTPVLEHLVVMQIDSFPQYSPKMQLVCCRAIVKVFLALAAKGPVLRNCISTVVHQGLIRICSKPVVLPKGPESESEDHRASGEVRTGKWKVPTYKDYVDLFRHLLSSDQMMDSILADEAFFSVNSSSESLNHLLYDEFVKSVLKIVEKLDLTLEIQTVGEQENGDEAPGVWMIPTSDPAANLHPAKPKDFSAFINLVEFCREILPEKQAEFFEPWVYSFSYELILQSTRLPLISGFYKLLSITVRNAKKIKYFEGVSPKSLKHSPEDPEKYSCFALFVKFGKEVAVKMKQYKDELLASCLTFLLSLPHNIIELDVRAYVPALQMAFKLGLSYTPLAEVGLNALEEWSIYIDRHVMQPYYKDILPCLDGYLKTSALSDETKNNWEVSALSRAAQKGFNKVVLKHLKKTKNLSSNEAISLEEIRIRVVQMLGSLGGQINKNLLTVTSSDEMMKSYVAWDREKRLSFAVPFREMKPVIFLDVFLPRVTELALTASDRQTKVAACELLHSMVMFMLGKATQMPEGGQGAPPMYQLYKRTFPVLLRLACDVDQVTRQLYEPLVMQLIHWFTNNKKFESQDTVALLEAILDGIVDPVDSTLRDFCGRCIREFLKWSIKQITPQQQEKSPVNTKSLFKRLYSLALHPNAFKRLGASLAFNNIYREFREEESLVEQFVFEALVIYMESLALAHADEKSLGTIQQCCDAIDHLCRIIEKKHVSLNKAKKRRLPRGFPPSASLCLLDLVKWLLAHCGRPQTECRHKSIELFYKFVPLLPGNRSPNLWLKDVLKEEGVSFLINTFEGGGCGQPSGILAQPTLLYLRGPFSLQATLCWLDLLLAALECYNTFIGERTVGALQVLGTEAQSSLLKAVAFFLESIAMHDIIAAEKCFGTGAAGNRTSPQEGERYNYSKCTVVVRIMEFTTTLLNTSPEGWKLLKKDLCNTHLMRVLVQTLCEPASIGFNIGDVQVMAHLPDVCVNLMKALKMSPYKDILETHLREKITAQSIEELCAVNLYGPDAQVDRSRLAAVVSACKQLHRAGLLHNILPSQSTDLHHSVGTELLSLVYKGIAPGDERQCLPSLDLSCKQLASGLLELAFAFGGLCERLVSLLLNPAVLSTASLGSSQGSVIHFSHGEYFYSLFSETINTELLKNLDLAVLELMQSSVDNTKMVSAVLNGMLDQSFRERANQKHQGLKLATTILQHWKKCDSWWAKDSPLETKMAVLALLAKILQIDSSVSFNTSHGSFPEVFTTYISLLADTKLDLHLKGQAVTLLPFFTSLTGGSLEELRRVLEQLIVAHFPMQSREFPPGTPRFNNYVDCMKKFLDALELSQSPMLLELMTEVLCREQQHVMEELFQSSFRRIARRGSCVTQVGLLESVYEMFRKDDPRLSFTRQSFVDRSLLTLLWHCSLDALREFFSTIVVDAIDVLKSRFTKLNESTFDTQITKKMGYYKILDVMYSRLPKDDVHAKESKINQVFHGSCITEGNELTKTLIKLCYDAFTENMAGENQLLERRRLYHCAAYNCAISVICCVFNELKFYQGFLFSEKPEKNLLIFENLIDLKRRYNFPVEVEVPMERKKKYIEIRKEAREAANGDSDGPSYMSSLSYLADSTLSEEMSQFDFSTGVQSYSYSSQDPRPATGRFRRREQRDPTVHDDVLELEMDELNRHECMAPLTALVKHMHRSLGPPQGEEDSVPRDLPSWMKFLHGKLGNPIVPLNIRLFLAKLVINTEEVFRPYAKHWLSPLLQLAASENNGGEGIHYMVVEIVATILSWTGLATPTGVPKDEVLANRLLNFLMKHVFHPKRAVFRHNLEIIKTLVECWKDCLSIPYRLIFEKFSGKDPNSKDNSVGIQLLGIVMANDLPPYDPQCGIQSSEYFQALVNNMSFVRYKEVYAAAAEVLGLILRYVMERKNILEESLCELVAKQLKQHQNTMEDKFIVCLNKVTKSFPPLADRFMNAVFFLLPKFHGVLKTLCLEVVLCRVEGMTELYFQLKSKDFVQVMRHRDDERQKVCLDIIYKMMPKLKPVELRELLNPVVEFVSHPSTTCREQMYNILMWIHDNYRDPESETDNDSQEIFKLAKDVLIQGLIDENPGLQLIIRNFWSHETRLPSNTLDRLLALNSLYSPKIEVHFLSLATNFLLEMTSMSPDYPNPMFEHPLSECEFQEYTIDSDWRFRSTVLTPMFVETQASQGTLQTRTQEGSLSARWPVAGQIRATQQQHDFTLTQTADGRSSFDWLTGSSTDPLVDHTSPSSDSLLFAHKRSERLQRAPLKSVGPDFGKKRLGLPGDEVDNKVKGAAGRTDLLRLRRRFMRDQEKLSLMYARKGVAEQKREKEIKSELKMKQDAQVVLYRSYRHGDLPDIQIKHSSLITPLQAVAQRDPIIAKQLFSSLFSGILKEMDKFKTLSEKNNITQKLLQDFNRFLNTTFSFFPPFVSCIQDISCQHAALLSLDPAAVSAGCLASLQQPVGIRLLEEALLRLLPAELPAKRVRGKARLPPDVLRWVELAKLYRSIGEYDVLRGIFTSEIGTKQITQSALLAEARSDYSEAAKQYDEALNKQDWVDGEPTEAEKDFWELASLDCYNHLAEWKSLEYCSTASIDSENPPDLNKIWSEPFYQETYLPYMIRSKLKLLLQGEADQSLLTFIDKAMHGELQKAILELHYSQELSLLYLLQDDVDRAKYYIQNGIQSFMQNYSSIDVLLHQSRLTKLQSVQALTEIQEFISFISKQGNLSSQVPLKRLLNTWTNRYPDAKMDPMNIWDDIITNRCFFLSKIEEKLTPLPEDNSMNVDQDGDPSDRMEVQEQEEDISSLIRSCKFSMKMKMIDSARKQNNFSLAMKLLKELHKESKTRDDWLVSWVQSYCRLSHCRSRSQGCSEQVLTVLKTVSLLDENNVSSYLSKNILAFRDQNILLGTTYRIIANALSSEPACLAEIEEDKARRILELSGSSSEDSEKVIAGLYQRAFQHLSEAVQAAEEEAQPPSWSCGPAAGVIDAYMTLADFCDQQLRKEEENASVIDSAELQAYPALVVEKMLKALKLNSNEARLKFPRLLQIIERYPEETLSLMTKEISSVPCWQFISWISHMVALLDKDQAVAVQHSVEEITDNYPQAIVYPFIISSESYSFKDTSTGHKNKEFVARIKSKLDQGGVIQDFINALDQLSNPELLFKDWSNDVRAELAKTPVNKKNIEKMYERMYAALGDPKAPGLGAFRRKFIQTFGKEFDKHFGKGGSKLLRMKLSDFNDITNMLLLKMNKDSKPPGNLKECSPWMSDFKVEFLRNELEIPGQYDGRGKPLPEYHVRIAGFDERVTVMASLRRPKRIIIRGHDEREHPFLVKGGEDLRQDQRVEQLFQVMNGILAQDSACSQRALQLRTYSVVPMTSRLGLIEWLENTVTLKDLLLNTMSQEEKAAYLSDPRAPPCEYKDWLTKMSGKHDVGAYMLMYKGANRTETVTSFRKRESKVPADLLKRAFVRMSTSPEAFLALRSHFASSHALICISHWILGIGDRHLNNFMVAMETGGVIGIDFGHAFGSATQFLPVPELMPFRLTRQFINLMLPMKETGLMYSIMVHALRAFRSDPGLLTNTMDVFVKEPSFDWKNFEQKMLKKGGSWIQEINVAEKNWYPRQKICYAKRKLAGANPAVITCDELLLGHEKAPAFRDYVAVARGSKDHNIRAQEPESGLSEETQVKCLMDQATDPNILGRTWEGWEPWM

Row | Compound | inhibition [%]
1 | CC(=O)Nc1ccccc1-c1ccc2oc(N3CCOCC3)cc(=O)c2c1 | 60
2 | Nc1ccc(-c2ccc3c(=O)cc(N4CCOCC4)oc3c2)cc1 | 31
3 | O=c1cc(N2CCOCC2)oc2cc(-c3ccc(O)cc3)ccc12 | 22
4 | O=C1c2ccccc2C(=O)N1Cc1cccc(-c2ccc3oc(N4CCOCC4)cc(=O)c3c2)c1 | 55
5 | CC(=O)Nc1ccccc1-c1ccc2c(=O)cc(N3CCOCC3)oc2c1 | 21
6 | O=c1cc(N2CCOCC2)oc2ccc(-c3cccs3)cc12 | 43
7 | O=c1cc(N2CCOCC2)oc2ccc(-c3ccc4ncccc4c3)cc12 | 13
8 | COC(=O)c1ccccc1-c1ccc2oc(N3CCOCC3)cc(=O)c2c1 | 30
9 | O=c1cc(N2CCOCC2)oc2ccc(-c3cccc4c3oc3ccccc34)cc12 | 37
10 | O=c1cc(N2CCOCC2)oc2cc(-c3ccccc3CO)ccc12 | 15
11 | O=c1cc(N2CCOCC2)oc2ccc(/C=C/c3ccccc3)cc12 | 6
12 | COc1ccc(-c2ccc3c(=O)cc(N4CCOCC4)oc3c2)cc1 | 22
13 | O=c1cc(N2CCOCC2)oc2ccc(-c3cccc4c3Sc3ccccc3S4)cc12 | 55
14 | CC(=O)c1ccccc1-c1ccc2oc(N3CCOCC3)cc(=O)c2c1 | 61
15 | O=c1cc(N2CCOCC2)oc2ccc(-c3ccsc3)cc12 | 42
16 | O=c1cc(N2CCOCC2)oc2cc(-c3cccc(OC(F)(F)F)c3)ccc12 | 20
17 | O=c1cc(N2CCOCC2)oc2ccc(/C=C/c3ccc(F)cc3)cc12 | 57
18 | COc1ccc(-c2ccc3oc(N4CCOCC4)cc(=O)c3c2)cc1 | 57
19 | O=c1cc(N2CCOCC2)oc2cc(-c3ccc(Cl)cc3)ccc12 | 4
20 | N#Cc1ccc(-c2ccc3oc(N4CCOCC4)cc(=O)c3c2)cc1 | 37
21 | O=c1cc(N2CCOCC2)oc2ccc(-c3ccc(O)cc3)cc12 | 57
22 | O=c1cc(N2CCOCC2)oc2ccc(-c3ccc(CO)cc3)cc12 | 58
23 | CC(=O)Nc1cccc(-c2ccc3oc(N4CCOCC4)cc(=O)c3c2)c1 | 37
24 | O=c1cc(N2CCOCC2)oc2ccc(-c3ccc(OC(F)(F)F)cc3)cc12 | 19
25 | CC(=O)c1ccccc1-c1ccc2c(=O)cc(N3CCOCC3)oc2c1 | 26
26 | O=c1cc(N2CCOCC2)oc2ccc(-c3ccc4[nH]ccc4c3)cc12 | 17
